From patent US4309559A, “Sulphonamides useful as pesticides” (FBC Limited, priority 1977, dated 1982) come the findings set out here.

Holding throughout (type): in vivo
Assay [1] has as its system Mustard (Sinapis alba). The assay is described as follows: Post-emergence foliar spray, herbicidal/growth regulant response, mustard. To be noted: 168 h, foliar spray 11.2 kg/ha, 7 days, 0=no effect, 100=complete kill, read-out: herbicidal or growth regulant response index. As to the method: (§1) Seeds of the plant species listed below were sown in anodised aluminium pans, 19 cm long×9.5 cm wide×5 cm deep, containing John Innes I potting compost. They were then watered and placed in a controlled environment room (22° C.; 65-85% relative humidity; 14 hours per day artificial illumination at 13,000 lux). Fourteen days after sowing, the seedlings received a foliar spray of a compound listed below, formulated as a solution in 1:1 by volume aqueous acetone. The concentration of active ingredient and volume of application were adjusted so as to be equivalent to a rate of 11.2 kg/ha in 450 liters per hectare. After seven days growth in the controlled environment room, the plants were visually assessed for any herbicidal or growth regulant response. All differences from the untreated control were scored according to an index where 0=no effect and 100=complete kill.
(§2) The product of Example 95 was tested according to the procedure of Examples 49-55.

For assay [2], the system named is Peas (Pisum sativum). The assay is described as follows: Post-emergence foliar spray, herbicidal/growth regulant response, peas. To be noted: Lathyrus oleraceus, 168 h, foliar spray 11.2 kg/ha, 7 days, 0=no effect, 100=complete kill, read-out: herbicidal or growth regulant response index. As to the method: as §1, §2
In the next assay the test system is Oats (Avena sativa). The assay is described as follows: Soil incorporation (attaclay/sand dust), growth regulatory or herbicidal effects, oats. To be noted: 504 h, soil incorporation 130 ppm, 21 days, 0=no effect, 100=complete kill/suppression, read-out: growth regulatory or herbicidal effect score. The text has this:
(§3) The compounds listed below were each formulated as an attaclay/sand dust and incorporated into John Innes I potting compost at a rate equivalent to 26 parts per million weight/volume of active ingredient to soil and placed in anodised aluminium pans, 19 cm long×9.5 cm wide×5.0 cm deep. This rate is approximately equivalent to a soil surface application of 11.2 kg active ingredient/hectare cultivated to a depth of 5 cm. Seeds of the species listed below were sown in the treated soil, watered and placed in a controlled environment room (22° C.; 65-85% relative humidity; 14 hours per day artificial illumination at 13,000 lux) for 21 days. The plants were then visually assessed for any growth regulatory or herbicidal effects. All differences from an untreated control were scored on a scale from 0-100, where 0 signifies no effect and 100 signifies complete kill.
(§4) The compounds listed below were tested according to the procedure of Examples 56-60 but at 130 parts per million weight/volume of active ingredient to soil. This rate is approximately equivalent to a soil surface application of 56 kg active ingredient per hectare cultivated to a depth of 5 cm.
(§5) The product of Example 95 was tested according to the procedure of Examples 56-60 but at 130 and 26 parts per million weight/volume. The results were as follows:
(§6) N-(2-oxopropyl)-2'-chloro-6'-methyl-methanesulphonanilide, formulated as an attaclay/sand dust, was incorporated in John Innes I potting compost at a rate equivalent to 130 parts per million weight/volume of active ingredient to soil and placed in anodised aluminium pans, 19 cm long×9.5 cm wide×5.0 cm deep. These rates are approximately equivalent to a soil surface application of 56 kg active ingredient per hectare cultivated to a depth of 5 cm. Seeds of Peas, Mustard, Linseed, Maize, Oats and Ryegrass were sown in the treated soil, watered and placed in a controlled environment room (22° C.; 65-85% relative humidity; 14 hours artificial illumination at 13000 lux) for 21 days.
(§7) The plants were then visually assessed for any growth regulatory or herbicidal effects. All differences from an untreated control were scored on a scale from 0-100, where 0 signifies no effect and 100 signifies complete suppression.

Assay [3] has as its system Linseed (Linum usitatissimum). In words: Soil incorporation (attaclay/sand dust), growth regulatory or herbicidal effects, linseed. The following applies: 504 h, soil incorporation 130 ppm, 21 days, 0=no effect, 100=complete kill/suppression, read-out: growth regulatory or herbicidal effect score.
Excerpt: as §3, §4, §5, §6, §7

For assay [4], the system named is Peas (Pisum sativum). In words: Soil incorporation (attaclay/sand dust), growth regulatory or herbicidal effects, peas. To be noted: Lathyrus oleraceus, 504 h, soil incorporation 130 ppm, 21 days, 0=no effect, 100=complete kill/suppression, read-out: growth regulatory or herbicidal effect score.
Excerpt: as §3, §4, §5, §6, §7

The test system of assay [5] is Mustard (Sinapis alba). In words: Soil incorporation (attaclay/sand dust), growth regulatory or herbicidal effects, mustard. The following applies: 504 h, soil incorporation 130 ppm, 21 days, 0=no effect, 100=complete kill/suppression, read-out: growth regulatory or herbicidal effect score.
Excerpt: as §3, §4, §5, §6, §7

A further assay concerns Oat (Avena sativa). In words: Post-emergence foliar spray, herbicidal/growth regulant response, oat. The following applies: 168 h, foliar spray 11.2 kg/ha, 7 days, 0=no effect, 100=complete kill, read-out: herbicidal or growth regulant response index. As to the method:
as §1, §2

For assay [6], the system named is Ryegrass (Lolium perenne). The assay is described as follows: Post-emergence foliar spray, herbicidal/growth regulant response, ryegrass. The following applies: 168 h, foliar spray 11.2 kg/ha, 7 days, 0=no effect, 100=complete kill, read-out: herbicidal or growth regulant response index. As to the method: as §1, §2
For assay [7], the system named is Sugarbeet (Beta vulgaris). The assay is described as follows: Post-emergence foliar spray, herbicidal/growth regulant response, sugarbeet. To be noted: 168 h, foliar spray 11.2 kg/ha, 7 days, 0=no effect, 100=complete kill, read-out: herbicidal or growth regulant response index. The method, then: as §1, §2
Assay [8] relates to Ryegrass (Lolium perenne). The assay is described as follows: Soil incorporation (attaclay/sand dust), growth regulatory or herbicidal effects, ryegrass. The following applies: 504 h, soil incorporation 130 ppm, 21 days, 0=no effect, 100=complete kill/suppression, read-out: growth regulatory or herbicidal effect score.
Excerpt: as §3, §4, §5, §6, §7

In assay [9] the test system is Linseed (Linum usitatissimum). In words: Post-emergence foliar spray, herbicidal/growth regulant response, linseed. The following applies: 168 h, foliar spray 11.2 kg/ha, 7 days, 0=no effect, 100=complete kill, read-out: herbicidal or growth regulant response index. As to the method: as §1, §2
The subject of another assay is Maize (Zea mays). The assay is described as follows: Soil incorporation (attaclay/sand dust), growth regulatory or herbicidal effects, maize. To be noted: 504 h, soil incorporation 130 ppm, 21 days, 0=no effect, 100=complete kill/suppression, read-out: growth regulatory or herbicidal effect score.
Excerpt: as §3, §4, §5, §6, §7

For assay [10], the system named is potato blight, Phytophthora infestans. The following applies: 5 days, controls less than 5%.
The subject of assay [11] is potato blight Phytophthora infestans. The following applies: 5 days, controls less than 5%.

Where two headings read alike, the source gives them in different places.

As for `CCCCS(=O)(=O)N(c1c(C)cccc1C)C(C)C(=O)OCC` (centres unmarked) [Example 27], the pest or weed control at 11200 g/ha with Mustard (Sinapis alba) [1] amounted to 100%; in the assay on Peas (Pisum sativum) [2], 5%; in assay [6] it was 20%; in [9], 70%. The plant injury at 130 µg/mL with Oats (Avena sativa) and in the assay on Maize (Zea mays) was 100% throughout. The pest or weed control at 130 µg/mL is 100% in assay [3], 20% in the assay with Peas (Pisum sativum) [4], 100% in the assay on Mustard (Sinapis alba) [5] and 100% in [8]. Besides, the plant injury at 11200 g/ha in the assay on Oat (Avena sativa) was 30%; in assay [7], 90%.

Regarding `COC(C)(CN(c1c(C)cccc1C)S(C)(=O)=O)OC` [Example 224, N-(2,2-dimethoxypropyl)-2',6'-dimethyl-methanesulphonanilide], the figures for the “% Control, potato blight” value in assay [10] (500 ppm) and in assay [10] (2,000 ppm) were 55% and 98%, respectively.

For the compound `CC(=O)CN(c1c(C)cccc1C)S(C)(=O)=O` [Example 211, N-2-oxopropyl-2',6'-dimethyl-methanesulphonanilide], the “% Control, potato blight” value in [10] (125 ppm) was found to be 90%; in assay [10] (500 ppm) it was 94%; in [10] (2,000 ppm), 99%.

With `CCc1ccccc1N(C(C)C(=O)N1CCOCC1)S(C)(=O)=O` (centres unmarked) [Example 41], the “% Control, potato blight” value in assay [11] (2000 ppm) is recorded as 93%.

`CCCS(=O)(=O)N(CC#N)c1ccc(Cl)c(Cl)c1` [Example 132]: the “% Control, potato blight” value amounted to 59% in assay [11] (500 ppm) and 76% in assay [11] (2000 ppm).

Regarding `CCOC(=O)C(C)N(c1ccccc1Cl)S(C)(=O)=O` (centres unmarked) [Example 25], the pest or weed control at 11200 g/ha in the assay with Mustard (Sinapis alba) [1] turned out to be 80%; with Peas (Pisum sativum) [2], 5%; in [6], 0%; in assay [9], 20%. The plant injury at 130 µg/mL was determined as 20% in the assay with Oats (Avena sativa) and 40% in the assay on Maize (Zea mays). The pest or weed control at 130 µg/mL is 50% in [3], 5% in the assay with Peas (Pisum sativum) [4], 100% in the assay with Mustard (Sinapis alba) [5] and 0% in [8]. In addition, the figures for the plant injury at 11200 g/ha (in the assay on Oat (Avena sativa); in assay [7]) were 20% and 30%, respectively.
